Results reported in patent US20200023001A1, “GlycoFix (Structurally And Functionally Repaired Endothelial Glycocalyx)” (Northeastern University, priority 2018, published 2020).

Test system: RFPEC
Test: PEG-AuNP uptake by RFPEC under glycocalyx conditions (confocal red fluorescence)
Assay type: cell-based, rat
Details: repaired glycocalyx (Hep III, then 59 μg/mL exogenous HS); 550 μg/mL PEG-AuNP, 16 hours
Experimental: RFPEC Culture. A rat fat pad endothelial cell (RFPEC) line^37 was utilized, originally isolated from rat epididymal fat pads by Dr. Mia Thi of Albert Einstein College of Medicine (Bronx, N.Y., USA). RFPECs were selected for their ability to naturally express a robust glycocalyx.^38 These ECs were cultured in tissue culture flasks at 37° C. and 5% CO2 in a humidified environment with Dulbecco's Modified Eagle's Medium (DMEM) supplemented with 10% fetal bovine serum (FBS) and 1% penicillin-streptomycin, all purchased from Thermo Fisher Scientific (Waltham, Mass., USA). For 3-(4,5-dimethylthiazol-2-yl)-5-(3-carboxymethoxyphenyl)-2-(4-sulfophenyl)-2H-tetrazolium (MTS) assays (Sigma-Aldrich Co., St Louis, Mo., USA), RFPECs were seeded at 3.7×10^4 cells/cm^2 in tissue culture-treated, 96-well plates (Falcon; Thermo Fisher Scientific) and imaged on a SpectraMax M3 plate reader to show cell viability and metabolic activity. […]
PEG-AuNP. […] After dialysis in 12-14 kDa molecular weight cutoff tubes (EMD Millipore, Billerica, Mass., USA) and lyophilization, an Alexa Fluor 647 N-hydroxysuccinimide (NHS) ester (succinimidyl ester) was conjugated onto the NH2 functional groups on the AuNP to allow for visualization under fluorescence. […] PEG-AuNP fluorescence activity was confirmed using a Jobin Yvon Fluoromax 4. […]

heparan sulfate [HS] was tested, and the “PEG-AuNP uptake relative to cells with healthy, intact glycocalyx” value was 1.3±0.3 fold.
